From ChEMBL document CHEMBL3102791, “Synthesis and biological evaluation of 2-aminothiazole derivatives as antimycobacterial and antiplasmodial agents” (Bioorg Med Chem Lett, 2014) come the findings set out here.

What all share (details): read-out: Stability
Series [1] is described as follows: Metabolic stability in BALB/c mouse liver microsomes assessed as compound remaining at 1 uM after 30 mins by HPLC-MS/MS analysis. Format: ADME, Microsome. For orientation: Liver microsomes are vesicles of endoplasmic reticulum, rich in cytochrome P450 enzymes.
Series [2] in a line: Metabolic stability in rat liver microsomes assessed as compound remaining at 1 uM after 30 mins by HPLC-MS/MS analysis. The class given is ADME.
Series [3] can be described thus: Metabolic stability in human liver microsomes assessed as compound remaining at 1 uM after 30 mins by HPLC-MS/MS analysis. The class given is ADME.

Structures are written as SMILES.

Turning to `N#Cc1ccc(C(=O)Nc2nc(-c3ccccn3)cs2)cc1`, the remaining at 0.5 h, 1 µM is 1.61% in series [1], 64.6% in series [2] and 24.1% in series [3].
Taken in the same sequence, the figures for `O=C(Nc1nc(-c2ccccn2)cs1)c1ccccc1` were 7.6%, 54.5% and 27.5%.
For `O=C(Nc1nc(-c2ccccn2)cs1)c1ccncc1` the same measures were 3.71%, 47.8% and 53.8%.
In the case of `O=C(Nc1nc(-c2ccccn2)cs1)c1cccc(Br)c1`, the figures for the remaining at 0.5 h, 1 µM in series [1], in series [2] and in series [3] were 82.4%, > 99% and > 99%, respectively.
On to `O=C(Nc1nc(-c2ccccn2)cs1)c1ccc(F)cc1`, for which the remaining at 0.5 h, 1 µM in series [1] was 3.61%; in series [2], 72.1%; in series [3], 14.2%.
Taken in the same sequence, the figures for `O=C(Nc1nc(-c2ccccn2)cs1)c1ccc(Cl)cc1` were 1.33%, 42.1% and 8.4%.
